This is an account of results in patent publication US20230321043A1, “COMPOUNDS HAVING PSEUDOMONAS ANTI-BIOFILM PROPERTIES” (Københavns Universitet, priority 2020, published 2023).

The structures appear in SMILES notation.

For assay [1], the system named is c-di-GMP level of P. aeruginosa ΔwspFΔpelΔpsl/pCdrA-gfp. Briefly: microbe, parasite or virus in culture. In kind it is cell-based, Pseudomonas aeruginosa. The protocol: The ΔwspF mutant overproduces c-di-GMP and the ΔpelΔpsl mutations renders the bacteria deficient in exopolysaccharide production, which keeps the growing bacteria in the planktonic mode.
The reduction of total cellular c-di-GMP level was determined as follows. To evaluate the impact of the various compounds on the c-di-GMP level of P. aeruginosa ΔwspFΔpelΔpsl/pCdrA-gfp, 20 hour old cultures of the strain were diluted 100 fold in microtiter plate wells (Nunc) containing […] aliquots of ABTrace medium supplemented with 0.2% glucose, 0.5% casamino acids, 60 μg/ml gentamicin, 1 μM FeCl3, 1% DMSO, and concentrations of compounds as indicated.
Subsequently the microtiter plates were incubated at 37° C. and 440 RPM in a TECAN reader (Infinite F200 PRO), and corresponding values of cell density (OD600) and GFP fluorescence were measured every 20 minutes for 24 hours. The reduction values indicated in the tables are calculated as fluorescence values divided by optical density at a time point where this value reached a plateau.
The resulting microtiter trays were incubated at 37° C. at 440 RPM in a TECAN reader (Infinite F200 PRO), and corresponding values of GFP flourescence (FU) and cell density (OD600) were measured every 20 minutes for 24 hours. […] In FIG. 3A and 3B, means and standard deviations (bars) represents 3 biological replicates (n=3).

For assay [2], the system named is P. aeruginosa mPA01 wt and PDE mutants incl. PA4367 (bifA). Nature of the assay: dispersal of biofilms of PDE transposon mutants, crystal violet. The assay is classed as cell-based, Pseudomonas aeruginosa. To be noted: 18 hours old biofilm, two hours of treatment, FIG. 6A. How it is done:
The inventors obtained mutants of all P. aeruginosa PDEs from the Washington P. aeruginosa mPAO1 transposon mutant library and investigated the ability of H6-335-P1 to disperse biofilms formed by each of these mutants in microtiter trays. […]
The resulting cultures were incubated at 37° C. on a rotary shaker (160 RPM) and biofilms were grown for 18 hours, at which time point either 2 μL of a 5 mM H6-335-P1 in 50% DMSO (+) or 2 μL of 50% DMSO (−) were added to each well. After two subsequent hours of growth, the culture supernatants were discarded and the amounts of biofilm present in the wells were quantified by crystal violet (CV) staining (Groizeleau et al., 2016).
The amounts of biofilm prevailing after two hours of treatments were determined for the wt strain mPA01 and each of the PDE mutants. […]

Assay [3] concerns P. aeruginosa biofilm on urinary tract catheters. Nature of the assay: catheter associated urinary tract infection model in mice. In kind it is in vivo. The protocol: Silicone catheters (5 mm long, 0.64 mm OD×0.3 mm ID) incubated with P. aeruginosa cultures (OD 1) for 22 hours to allow bacterial adhesion and subsequent coating. Mice then had the catheters inserted in the bladder and biofilm developed on the catheters for 24 hours. […] At 48 hours post-insertion the mice were euthanized, and the bacterial contents as CFU per implant were determined. Two experiments were pooled, and the median CFU per implant for the placebo group was set to 100. Horizontal lines indicate median CFU for each group. Each symbol represents a mouse. IP administered doses: H6 P1: 2×13 mg/Kg BW, CIP: 2×1 mg/Kg BW.
Silicone catheters (5 mm long, 0.64 mm OD×0.3 mm ID) incubated with P. aeruginosa cultures (OD 1) for 22 hours to allow bacterial adhesion and subsequent coating. Mice then had the catheters inserted in the bladder and biofilm developed on the catheters for 24 hours. […] At 48 hours post-insertion the mice were euthanized, and the bacterial contents as CFU per implant were determined. The median CFU per catheter for the control groups were set to 100. The median CFU per catheter for the placebo groups were 3×10^5 and 7×10^4. Horizontal lines indicate median CFU for each group. Each symbol represents one mouse. Orally administered doses: 2×13 mg/Kg BW, 2×3.3 mg/Kg BW. […]

Assay [4] concerns P. aeruginosa wspF mutant. Briefly: Congo Red agar plate colony phenotype. The following applies: CR plates supplemented with 100 μM; dark red without compound. In kind it is cell-based, Pseudomonas aeruginosa. From the text:
The inventors employed mutational analysis with the aim of identifying a putative target of H6-335-P1. The compound Congo Red (CR) binds to exopolymers whose production is positively regulated by c-di-GMP in P. aeruginosa (Friedman, L., and R. Kolter. 2003.
Genes involved in matrix formation in Pseudomonas aeruginosa PA14 biofilms. Molecular Microbiology 51:675-690).

Assay [5] has as its system Enterococcus facieum. Nature of the assay: biofilm formation / dispersal, host range. In kind it is cell-based. To be noted: data not shown.
Assay [6] concerns Staphylococcus aureus. Briefly: biofilm formation / dispersal, host range. In kind it is cell-based. To be noted: data not shown.
Assay [7] concerns Klebsiella pneumoniea. Nature of the assay: biofilm formation / dispersal, host range. In kind it is cell-based. The following applies: data not shown.
Assay [8] relates to Escherichia coli. Briefly: biofilm formation / dispersal, host range. In kind it is cell-based. To be noted: data not shown.

In the case of `N=C1NN=C(N)/C1=N/Nc1ccccc1F` [H6-335-P1, 4-[(2-fluorophenyl) hydrazinylidene]pyrazole-3,5-diamine], in assay [1] (100 μM, compared with control cultures with 1% DMSO), the “reduction of the fluorescence output of the c-di-GMP monitor cultures” value came out at 80%. For the same molecule, the inhibition at 100 µM in assay [1] (Pseudomonas aeruginosa, read-out: Reduction of total cellular c-di-GMP level) was found to be 80%. Further, in assay [2], the “induced dispersal of biofilm of the bifA mutant (PA4367)” value is “did not respond to H6-335-P1 induced dispersal”; the “induced dispersal of biofilms of P. aeruginosa wt and all the remaining PDE mutants” value is listed as “dispersed in response to H6-335-P1 exposure”. In addition, the “number of bacteria on the catheters, intraperitoneal administration” value in assay [3] (given as H6-335-P1:HCl 2×13 mg/Kg BW IP, with or without ciprofloxacin, FIG. 10A) was “reduced the number of bacteria on the catheters”. In addition, the “biofilm mass on the catheters, oral administration” value in assay [3] (given as H6-335-P1:HCl in Nutella, as low as […] (3.3 mg/Kg BW), FIG. 10B) was “significantly reduces the biofilm mass on the catheters”. The “colony colour on Congo Red plates” value in assay [4] was “white colonies”. Also, the “biofilm formation of Enterococcus facieum” value in assay [5] is given as “failed to reduce biofilm formation”. The “biofilm formation of Staphylococcus aureus” value in assay [6] is “failed to reduce biofilm formation”. Further, the “biofilm formation of Klebsiella pneumoniea” value in assay [7] is listed as “failed to reduce biofilm formation”. Also, the “biofilm formation of Escherichia coli” value in assay [8] was “failed to reduce biofilm formation”.
